For 17 molecules, IC50 results are on record in patent publication US20260137703A1, “2-AMINO-PYRIDO[2,3-D]PYRIMIDIN-7(8H)-ONE AND 7-AMINO-1-PYRIMIDO[4,5-D]PYRIMIDIN-2(1 H)-ONE DERIVATIVES AS EGFR INHIBITORS FOR THE TREATMENT OF CANCER” (Cancer Research Technology Limited, priority 2022, published 2026).

For assay [1], the target named is T1, Phospho-EGFR (Tyr1068) in H1975 cells (Homo sapiens, UniProt P00533, L858R/T790M).
T1 construct: host or cells: H1975
The assay can be described thus: HTRF pEGFR/total EGFR in H1975 cells. Type of assay: cell-based. Particulars: ratio pEGFR/total EGFR, compound 3 hours. The procedure, abridged:
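H1975 cells (EGFR L858R/T790M) treated 3 h with compound in 0.1% DMSO, in duplicate, 24 h after plating. Lysates assayed by HTRF for pEGFR (Tyr1068) and total EGFR at 665/620 nm; values are pEGFR/total EGFR ratio as percent of 0 μM control.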
Background: In TR-FRET formats the signal depends on donor and acceptor labels being close together.

In assay [2] the target is CtermHisTag-mEGFR Wild type (Homo sapiens, UniProt P00533). Put plainly: biochemical.
The target of assay [3] is T2, Phospho-EGFR (Tyr1068) in A431 cells (Homo sapiens, UniProt P00533).
T2 construct: endogenous in cells; host or cells: A431
Put plainly: HTRF pEGFR/total EGFR in A431 cells with EGF stimulation. It counts as cell-based. The settings on record: ratio pEGFR/total EGFR, compound 2.5 hours then 100 ng/ml EGF 30 mins. The procedure, abridged: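 A431 cells were plated at 20,000 per well, allowed 24 h to adhere, then given compound for 2.5 h (0.1% DMSO final). They were then stimulated with 100 ng/ml EGF for 30 min and lysed. HTRF measured Tyr1068-phospho and total EGFR at 665/620 nm, with pEGFR/total EGFR expressed as % of the 0 μM control.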

In assay [4] the target is T3, Phospho-EGFR (Tyr1068) in H1975 C797S cells (CRISPR-edited EGFR C797S) (Homo sapiens, UniProt P00533, C797S/L858R/T790M).
T3 construct: host or cells: H1975 C797S (CRISPR-edited)
Put plainly: HTRF pEGFR/total EGFR in H1975 C797S cells. It counts as cell-based. The settings on record: ratio pEGFR/total EGFR, compound 3 hours. In outline: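 Adhered H1975 C797S cells got compound for 3 h in duplicate at 0.1% DMSO final, then were lysed 30 min at room temperature. HTRF kits quantified phospho-EGFR (Tyr1068) and total EGFR (665/620 nm); results are pEGFR/total EGFR ratio as percent of 0 μM control.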

T1 sequence (P00533 25-1210 T790M/L858R): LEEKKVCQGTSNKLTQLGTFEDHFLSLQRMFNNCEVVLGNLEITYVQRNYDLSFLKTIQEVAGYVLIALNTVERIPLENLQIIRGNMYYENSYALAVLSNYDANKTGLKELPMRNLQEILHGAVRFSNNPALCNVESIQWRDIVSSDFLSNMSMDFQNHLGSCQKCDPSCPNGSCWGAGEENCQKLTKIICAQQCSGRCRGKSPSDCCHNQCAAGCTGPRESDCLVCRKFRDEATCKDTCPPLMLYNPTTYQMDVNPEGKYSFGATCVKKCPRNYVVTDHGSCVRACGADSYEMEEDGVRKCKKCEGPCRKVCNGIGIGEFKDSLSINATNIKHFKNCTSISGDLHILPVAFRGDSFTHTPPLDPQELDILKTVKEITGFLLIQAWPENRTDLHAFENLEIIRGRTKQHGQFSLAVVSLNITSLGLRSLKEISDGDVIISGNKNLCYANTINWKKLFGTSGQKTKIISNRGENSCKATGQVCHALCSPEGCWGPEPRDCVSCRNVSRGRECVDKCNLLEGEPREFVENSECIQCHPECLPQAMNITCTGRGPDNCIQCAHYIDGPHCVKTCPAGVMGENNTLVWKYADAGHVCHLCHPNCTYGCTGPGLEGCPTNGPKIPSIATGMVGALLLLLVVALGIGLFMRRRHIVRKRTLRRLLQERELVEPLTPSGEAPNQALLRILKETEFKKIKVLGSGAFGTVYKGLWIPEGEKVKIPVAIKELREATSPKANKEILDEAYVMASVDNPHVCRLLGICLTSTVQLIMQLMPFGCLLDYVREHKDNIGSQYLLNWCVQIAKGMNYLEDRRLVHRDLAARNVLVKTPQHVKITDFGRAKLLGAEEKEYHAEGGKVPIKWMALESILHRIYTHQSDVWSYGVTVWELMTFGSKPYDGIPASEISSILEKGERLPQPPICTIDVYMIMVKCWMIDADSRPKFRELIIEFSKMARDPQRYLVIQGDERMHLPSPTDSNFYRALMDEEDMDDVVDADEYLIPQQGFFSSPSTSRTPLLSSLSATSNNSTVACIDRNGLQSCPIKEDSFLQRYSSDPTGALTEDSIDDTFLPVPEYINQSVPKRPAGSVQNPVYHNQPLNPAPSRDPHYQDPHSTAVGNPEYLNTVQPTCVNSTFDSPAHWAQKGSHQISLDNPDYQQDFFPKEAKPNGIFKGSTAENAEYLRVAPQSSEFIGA
Sequence of CtermHisTag-mEGFR Wild type (P00533 whole entry): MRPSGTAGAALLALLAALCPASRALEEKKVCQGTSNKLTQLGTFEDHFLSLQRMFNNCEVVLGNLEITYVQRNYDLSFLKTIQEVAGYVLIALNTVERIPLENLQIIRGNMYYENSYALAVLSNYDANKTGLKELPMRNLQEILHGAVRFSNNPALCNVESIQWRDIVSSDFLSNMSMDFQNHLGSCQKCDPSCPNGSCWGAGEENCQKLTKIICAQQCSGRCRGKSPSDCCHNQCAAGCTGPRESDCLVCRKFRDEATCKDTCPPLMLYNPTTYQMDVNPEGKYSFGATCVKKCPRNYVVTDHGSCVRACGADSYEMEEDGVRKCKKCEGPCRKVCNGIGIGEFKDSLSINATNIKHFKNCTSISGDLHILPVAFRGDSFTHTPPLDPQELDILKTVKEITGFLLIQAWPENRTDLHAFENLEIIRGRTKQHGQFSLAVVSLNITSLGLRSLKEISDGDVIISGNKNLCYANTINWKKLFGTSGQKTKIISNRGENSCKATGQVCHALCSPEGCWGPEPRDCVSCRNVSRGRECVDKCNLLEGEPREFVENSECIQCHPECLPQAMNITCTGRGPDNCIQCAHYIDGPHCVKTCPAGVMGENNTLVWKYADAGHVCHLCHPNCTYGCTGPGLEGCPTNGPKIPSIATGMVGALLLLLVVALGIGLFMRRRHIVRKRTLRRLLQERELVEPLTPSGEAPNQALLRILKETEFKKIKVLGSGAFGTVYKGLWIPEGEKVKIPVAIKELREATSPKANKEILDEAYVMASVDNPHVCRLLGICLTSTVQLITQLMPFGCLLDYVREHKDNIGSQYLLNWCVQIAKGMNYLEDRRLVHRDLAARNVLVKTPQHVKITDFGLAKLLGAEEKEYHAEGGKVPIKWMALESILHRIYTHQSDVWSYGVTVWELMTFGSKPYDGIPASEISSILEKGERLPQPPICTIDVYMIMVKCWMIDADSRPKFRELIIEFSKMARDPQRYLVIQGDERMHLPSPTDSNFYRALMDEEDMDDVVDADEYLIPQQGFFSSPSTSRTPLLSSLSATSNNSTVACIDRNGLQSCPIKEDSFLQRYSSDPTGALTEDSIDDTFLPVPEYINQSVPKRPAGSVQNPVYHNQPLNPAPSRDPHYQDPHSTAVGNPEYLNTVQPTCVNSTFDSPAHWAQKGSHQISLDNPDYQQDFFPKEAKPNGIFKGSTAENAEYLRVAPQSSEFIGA
T2 sequence (P00533 25-1210): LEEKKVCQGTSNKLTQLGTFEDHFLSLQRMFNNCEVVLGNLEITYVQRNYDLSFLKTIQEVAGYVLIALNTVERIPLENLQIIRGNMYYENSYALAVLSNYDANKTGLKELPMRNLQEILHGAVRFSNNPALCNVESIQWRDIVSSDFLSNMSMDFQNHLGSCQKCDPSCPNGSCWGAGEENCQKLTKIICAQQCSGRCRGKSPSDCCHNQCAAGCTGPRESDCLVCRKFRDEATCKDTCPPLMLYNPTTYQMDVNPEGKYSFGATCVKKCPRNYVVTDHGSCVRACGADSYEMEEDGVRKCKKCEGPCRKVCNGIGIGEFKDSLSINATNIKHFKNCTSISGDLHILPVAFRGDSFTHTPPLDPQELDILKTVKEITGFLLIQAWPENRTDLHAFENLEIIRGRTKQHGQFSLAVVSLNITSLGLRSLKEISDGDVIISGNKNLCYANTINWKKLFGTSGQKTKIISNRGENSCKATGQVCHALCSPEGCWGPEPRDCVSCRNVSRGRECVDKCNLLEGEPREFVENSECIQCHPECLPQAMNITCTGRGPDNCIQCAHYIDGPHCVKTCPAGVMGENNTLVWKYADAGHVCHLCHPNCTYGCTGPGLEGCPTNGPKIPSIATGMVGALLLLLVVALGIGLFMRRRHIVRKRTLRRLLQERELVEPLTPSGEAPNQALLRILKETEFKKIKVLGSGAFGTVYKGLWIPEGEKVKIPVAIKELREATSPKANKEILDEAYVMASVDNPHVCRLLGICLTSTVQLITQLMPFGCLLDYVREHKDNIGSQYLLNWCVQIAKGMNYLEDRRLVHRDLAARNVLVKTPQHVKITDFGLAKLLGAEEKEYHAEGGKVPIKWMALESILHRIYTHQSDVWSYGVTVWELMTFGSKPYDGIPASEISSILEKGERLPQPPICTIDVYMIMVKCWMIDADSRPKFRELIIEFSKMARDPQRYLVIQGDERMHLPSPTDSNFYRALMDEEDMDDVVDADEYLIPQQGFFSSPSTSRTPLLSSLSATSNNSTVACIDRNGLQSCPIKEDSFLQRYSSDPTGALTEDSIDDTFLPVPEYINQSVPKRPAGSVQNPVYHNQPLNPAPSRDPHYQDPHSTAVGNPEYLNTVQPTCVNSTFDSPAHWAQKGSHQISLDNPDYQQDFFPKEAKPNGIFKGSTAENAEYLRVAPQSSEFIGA
T3 sequence (P00533 25-1210 T790M/C797S/L858R): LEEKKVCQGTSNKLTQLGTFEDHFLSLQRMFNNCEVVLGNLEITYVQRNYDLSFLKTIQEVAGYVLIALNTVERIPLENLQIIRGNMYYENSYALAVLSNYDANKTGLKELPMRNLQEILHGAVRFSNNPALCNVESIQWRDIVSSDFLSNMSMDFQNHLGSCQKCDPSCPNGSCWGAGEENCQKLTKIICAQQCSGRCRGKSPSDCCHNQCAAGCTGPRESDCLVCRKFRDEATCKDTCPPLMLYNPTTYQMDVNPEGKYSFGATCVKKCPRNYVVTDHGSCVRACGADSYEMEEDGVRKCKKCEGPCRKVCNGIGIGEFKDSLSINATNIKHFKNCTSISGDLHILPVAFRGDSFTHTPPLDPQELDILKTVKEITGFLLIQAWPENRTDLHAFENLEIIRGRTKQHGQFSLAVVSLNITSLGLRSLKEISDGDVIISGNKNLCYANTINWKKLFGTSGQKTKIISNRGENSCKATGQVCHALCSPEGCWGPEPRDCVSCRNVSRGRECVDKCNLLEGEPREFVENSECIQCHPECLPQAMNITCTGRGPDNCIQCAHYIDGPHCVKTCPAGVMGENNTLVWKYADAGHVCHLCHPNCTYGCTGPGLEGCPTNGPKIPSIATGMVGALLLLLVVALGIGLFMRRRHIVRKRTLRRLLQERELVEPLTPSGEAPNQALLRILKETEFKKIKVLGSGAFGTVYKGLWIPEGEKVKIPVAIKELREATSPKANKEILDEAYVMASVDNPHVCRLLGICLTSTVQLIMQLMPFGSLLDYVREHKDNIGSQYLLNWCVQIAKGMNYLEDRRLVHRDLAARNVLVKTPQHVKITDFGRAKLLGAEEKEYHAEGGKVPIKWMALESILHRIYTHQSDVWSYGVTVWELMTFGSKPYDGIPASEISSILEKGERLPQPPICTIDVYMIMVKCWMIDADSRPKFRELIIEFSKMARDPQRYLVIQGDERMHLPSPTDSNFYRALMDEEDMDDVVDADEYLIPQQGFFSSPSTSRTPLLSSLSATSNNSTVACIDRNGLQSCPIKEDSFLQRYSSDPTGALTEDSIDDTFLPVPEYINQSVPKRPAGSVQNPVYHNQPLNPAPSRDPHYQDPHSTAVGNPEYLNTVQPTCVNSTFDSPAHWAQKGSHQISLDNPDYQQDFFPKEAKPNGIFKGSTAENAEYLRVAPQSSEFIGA

For the molecule `C#Cc1cc(=O)n(-c2cccc(N)c2)c2nc(Nc3ccccc3OC)ncc12` [Example 55, 8-(3-Aminophenyl)-5-ethynyl-2-((2-methoxyphenyl)amino)pyrido[2,3-d]pyrimidin-7(8H)-one], the IC50 (commonly the concentration that inhibits the measured activity by half) in assay [1] is 1 to 3 µM; in assay [2], 1 to 10 µM; in assay [3], greater than 3 µM; in assay [4], greater than 3 µM.
For `C#Cc1cc(=O)n(-c2cccc(NC(=O)COC(C)=O)c2)c2nc(Nc3ccccc3OC)ncc12` [Example 59, 2-((3-(5-Ethynyl-2-((2-methoxyphenyl)amino)-7-oxopyrido[2,3-d]pyrimidin-8(7H)-yl)phenyl)amino)-2-oxoethyl acetate], the IC50 in assay [1] was greater than 3 µM; in assay [2], 1 to 10 µM; in assay [3], greater than 3 µM; in assay [4], greater than 3 µM.
In the case of `C#Cc1cc(=O)n(-c2ccc([N+](=O)[O-])cc2)c2nc(Nc3ccccc3OC)ncc12` [Example 60, 5-Ethynyl-2-((2-methoxyphenyl)amino)-8-(4-nitrophenyl)pyrido[2,3-d]pyrimidin-7(8H)-one], the IC50 in assay [1] was greater than 3 µM; in assay [2], 1 to 10 µM; in assay [3], greater than 3 µM; in assay [4] it was greater than 3 µM.
Take `C#Cc1cc(=O)n(-c2ccc(N)cc2)c2nc(Nc3ccccc3OC)ncc12` [Example 61, 8-(4-Aminophenyl)-5-ethynyl-2-((2-methoxyphenyl)amino)pyrido[2,3-d]pyrimidin-7(8H)-one]: the IC50 in assay [1] is greater than 3 µM; in assay [2], less than 1 µM; in assay [3], greater than 3 µM; in assay [4], greater than 3 µM.
For the molecule `C#Cc1cc(=O)n(-c2ccc(NC(C)=O)cc2)c2nc(Nc3ccccc3OC)ncc12` [Example 62, N-(4-(5-Ethynyl-2-((2-methoxyphenyl)amino)-7-oxopyrido[2,3-d]pyrimidin-8(7H)-yl)phenyl)acetamide], the IC50 in assay [1] is greater than 3 µM; in assay [2], 1 to 10 µM; in assay [3], greater than 3 µM; in assay [4], greater than 3 µM.
As to `C#Cc1cc(=O)n(-c2ccc(NS(C)(=O)=O)cc2)c2nc(Nc3ccccc3OC)ncc12` [Example 63, N-(4-(5-Ethynyl-2-((2-methoxyphenyl)amino)-7-oxopyrido[2,3-d]pyrimidin-7(8H)-yl)phenyl)methanesulfonamide], the IC50 is greater than 3 µM in assay [1], less than 1 µM in assay [2], greater than 3 µM in assay [3] and greater than 3 µM in assay [4].
As for `C#Cc1cc(=O)n(-c2ccc(NC(=O)COC(C)=O)cc2)c2nc(Nc3ccccc3OC)ncc12` [Example 64, 2-((4-(5-Ethynyl-2-((2-methoxyphenyl)amino)-7-oxopyrido[2,3-d]pyrimidin-8(7H)-yl)phenyl)amino)-2-oxoethyl acetate], the IC50 in assay [1] was greater than 3 µM; in assay [2], 1 to 10 µM; in assay [3], greater than 3 µM; in assay [4] it was greater than 3 µM.
Regarding `C#Cc1cc(=O)n(-c2ccc(NC(=O)CC)cc2)c2nc(Nc3ccccc3OC)ncc12` [Example 65, N-(4-(5-Ethynyl-2-((2-methoxyphenyl)amino)-7-oxopyrido[2,3-d]pyrimidin-7(8H)-yl)phenyl)propionamide], the IC50 in assay [1] is greater than 3 µM; in assay [2] it was 1 to 10 µM; in assay [3] it was greater than 3 µM; in assay [4] it was greater than 3 µM.
In the case of `C#Cc1cc(=O)n(-c2ccc(NC(=O)C3CC3)cc2)c2nc(Nc3ccccc3OC)ncc12` [Example 66, N-(4-(5-Ethynyl-2-((2-methoxyphenyl)amino)-7-oxopyrido[2,3-d]pyrimidin-8(7H)-yl)phenyl)cyclopropanecarboxamide], the IC50 in assay [1] is greater than 3 µM; in assay [2] it was 1 to 10 µM; in assay [3], greater than 3 µM; in assay [4] it was greater than 3 µM.
On to `C#Cc1cc(=O)n(CC2CCCC2)c2nc(Nc3ccc(N4CCN(C)CC4)cc3)ncc12` [Example 67, 8-(Cyclopentylmethyl)-5-ethynyl-2-((4-(4-methylpiperazin-1-yl)phenyl)amino)pyrido[2,3-d]pyrimidin-7(8H)-one], for which the IC50 in assay [1] is less than 0.5 µM; in assay [2] it was less than 1 µM; in assay [3], 1 to 3 µM; in assay [4], less than 0.5 µM.
Turning to `C#Cc1cc(=O)n(C2CCCCC2)c2nc(Nc3ccc(N4CCN(C)CC4)cc3)ncc12` [Example 68, 8-Cyclohexyl-5-ethynyl-2-((4-(4-methylpiperazin-1-yl)phenyl)amino)pyrido[2,3-d]pyrimidin-7(8H)-one], the IC50 in assay [1] was less than 0.5 µM; in assay [2] it was less than 1 µM; in assay [3], 1 to 3 µM; in assay [4] it was 0.5 to 1 µM.
Take `C#Cc1cc(=O)n(C2CCOCC2)c2nc(Nc3ccc(N4CCN(C)CC4)cc3)ncc12` [Example 69, 5-Ethynyl-2-((4-(4-methylpiperazin-1-yl)phenyl)amino)-8-(tetrahydro-2H-pyran-4-yl)pyrido[2,3-d]pyrimidin-7(8H)-one]: the IC50 was less than 0.5 µM in assay [1], less than 1 µM in assay [2], greater than 3 µM in assay [3] and 1 to 3 µM in assay [4].
In the case of `C#Cc1cc(=O)n(CC2CCOC2)c2nc(Nc3ccc(N4CCN(C)CC4)cc3)ncc12` (centres unmarked) [Example 70, 5-Ethynyl-2-((4-(4-methylpiperazin-1-yl)phenyl)amino)-8-((tetrahydrofuran-3-yl)methyl)pyrido[2,3-d]pyrimidin-7(8H)-one], the IC50 in assay [1] was less than 0.5 µM; in assay [2], less than 1 µM; in assay [3], greater than 3 µM; in assay [4], less than 0.5 µM.
`C#Cc1cc(=O)n(C[C@@H]2CCC(=O)N2)c2nc(Nc3ccc(N4CCN(C)CC4)cc3)ncc12` [Example 71, (S)-5-Ethynyl-2-((4-(4-methylpiperazin-1-yl)phenyl)amino)-8-((5-oxopyrrolidin-2-yl)methyl)pyrido[2,3-d]pyrimidin-7(8H)-one]: the IC50 in assay [1] was greater than 3 µM; in assay [2] it was greater than 10 µM; in assay [3], greater than 3 µM; in assay [4], greater than 3 µM.
On to `C#Cc1cc(=O)n(CC2CCCO2)c2nc(Nc3ccc(N4CCN(C)CC4)cc3)ncc12` (centres unmarked) [Example 72, 5-Ethynyl-2-((4-(4-methylpiperazin-1-yl)phenyl)amino)-8-((tetrahydrofuran-2-yl)methyl)pyrido[2,3-d]pyrimidin-7(8H)-one], for which the IC50 in assay [1] was 0.5 to 1 µM; in assay [2] it was less than 1 µM; in assay [3], greater than 3 µM; in assay [4], less than 0.5 µM.
The matching figures for `C#Cc1cc(=O)n(C2CCCC2O)c2nc(Nc3ccc(N4CCN(C)CC4)cc3)ncc12` (centres unmarked) [Example 73, 5-Ethynyl-8-(2-hydroxycyclopentyl)-2-((4-(4-methylpiperazin-1-yl)phenyl)amino)pyrido[2,3-d]pyrimidin-7(8H)-one]: 0.5 to 1 µM, 1 to 10 µM, greater than 3 µM and 1 to 3 µM.
On the same counts, the results for `C#Cc1cc(=O)n(C(C)C)c2nc(Nc3ccc(N4CCN(C)CC4)cc3)ncc12` [Example 76, 5-Ethynyl-8-isopropyl-2-{[4-(4-methylpiperazin-1-yl)phenyl]amino}pyrido[2,3-d]pyrimidin-7-one] are less than 0.5 µM, less than 1 µM, greater than 3 µM and 0.5 to 1 µM.
